Data from PMC9497135, “Structure-Based Study to Overcome Cross-Reactivity of Novel Androgen Receptor Inhibitors” (Cells, 2022).

Molecular target: T1, AR (LNCaP cells, which carry the T878A AR mutation) (Homo sapiens, UniProt P10275, T878A)
T1 construct: LNCaP cells, which carry the T878A AR mutation; endogenous in cells; host or cells: LNCaP (LN-ARR2PB-eGFP)
T1 sequence (P10275 1-920 T878A): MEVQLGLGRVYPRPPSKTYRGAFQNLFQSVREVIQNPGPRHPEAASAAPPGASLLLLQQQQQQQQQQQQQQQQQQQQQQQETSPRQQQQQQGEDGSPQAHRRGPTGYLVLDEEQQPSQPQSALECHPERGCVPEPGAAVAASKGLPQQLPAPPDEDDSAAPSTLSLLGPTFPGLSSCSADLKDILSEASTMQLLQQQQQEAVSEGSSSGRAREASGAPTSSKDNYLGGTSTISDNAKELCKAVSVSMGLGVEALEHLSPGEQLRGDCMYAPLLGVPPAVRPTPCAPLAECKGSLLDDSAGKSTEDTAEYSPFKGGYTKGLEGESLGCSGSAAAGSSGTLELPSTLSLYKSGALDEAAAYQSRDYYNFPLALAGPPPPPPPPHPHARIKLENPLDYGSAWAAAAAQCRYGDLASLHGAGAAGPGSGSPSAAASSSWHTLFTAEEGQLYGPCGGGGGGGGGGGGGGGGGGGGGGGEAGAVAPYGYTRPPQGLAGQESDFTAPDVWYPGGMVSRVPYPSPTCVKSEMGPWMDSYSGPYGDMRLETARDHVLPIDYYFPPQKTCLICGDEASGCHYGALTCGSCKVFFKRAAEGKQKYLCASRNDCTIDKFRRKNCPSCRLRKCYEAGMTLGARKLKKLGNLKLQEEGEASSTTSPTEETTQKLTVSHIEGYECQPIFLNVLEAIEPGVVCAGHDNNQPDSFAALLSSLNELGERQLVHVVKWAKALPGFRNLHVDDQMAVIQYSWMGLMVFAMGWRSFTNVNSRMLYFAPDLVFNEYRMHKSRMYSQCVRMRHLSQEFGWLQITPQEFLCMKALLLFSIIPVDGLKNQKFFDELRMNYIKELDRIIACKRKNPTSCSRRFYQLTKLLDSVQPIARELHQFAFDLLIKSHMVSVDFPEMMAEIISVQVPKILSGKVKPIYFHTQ
Experiment: eGFP cellular AR transcription assay in LNCaP cells (LN-ARR2PB-eGFP)
Assay type: cell-based
Conditions: LNCaP, with R1881, high concentrations
Experimental: AR transcriptional activity was assayed as previously described. Briefly, LNCaP human prostate cancer cells (LN-ARR2PB-eGFP), stably transfected with eGFP reporter driven by an androgen responsive probasin-derived promoter (ARR2PB), were grown in phenol red free RPMI 1640 media supplemented with 5% charcoal stripped serum (CSS). After 5 days, the cells were plated into a 96-well plate (35,000 cells/well) with 0.1 nM of the synthetic androgen R1881 and increasing concentrations (0−100 μM) of test compounds. Fluorescence (excitation 485 nm, emission 535 nm) was measured after 3 days of incubation with the compounds.

COc1c(F)cccc1-c1csc(N2CCOCC2)n1 [VPC14368, 4-(4-(3-fluoro-2-methoxyphenyl)thiazol-2-yl)morpholine]
Partial agonistic effect in eGFP assay: partial agonistic effect
